Test results taken from ChEMBL document CHEMBL1126229, “Enol lactone derivatives as inhibitors of human neutrophil elastase and trypsin-like proteases” (Bioorg Med Chem Lett, 1992).
Blank lines part the entries; values can stand above or below the compound they belong to.

How the values were obtained:
Serine protease 1 [1] = target: T1, Serine protease 1 (Homo sapiens, UniProt P07477); assay: Rate constant of deacylation for trypsin
[2] = target: Chymotrypsinogen A (Bos taurus) (UniProt P00766); assay: Binding constant on alpha-chymotrypsin was determined at 45 percent and at 96 minutes for maximum inhibition and no enzyme activity was recovered over the 2 h-time
[3] = target: T2, Urokinase-type plasminogen activator (Homo sapiens, UniProt P00749); assay: Rate constant of deacylation for Urokinase-type plasminogen activator
Serine protease 1 [4] = target: T1, Serine protease 1; assay: Rate constant of acylation on trypsin was determined at 10 percent and at 83 minutes for maximum inhibition and no enzyme activity was recovered over the 2 h-time
[5] = target: T3, Chymotrypsin-like elastase family member 2A (Sus scrofa) (UniProt P08419); assay: Binding constant on porcine pancreatic elastase was determined at 30 percent and at 99 minutes for maximum inhibition and no enzyme activity was recovered over the 2 h-time
T3 sequence (whole entry): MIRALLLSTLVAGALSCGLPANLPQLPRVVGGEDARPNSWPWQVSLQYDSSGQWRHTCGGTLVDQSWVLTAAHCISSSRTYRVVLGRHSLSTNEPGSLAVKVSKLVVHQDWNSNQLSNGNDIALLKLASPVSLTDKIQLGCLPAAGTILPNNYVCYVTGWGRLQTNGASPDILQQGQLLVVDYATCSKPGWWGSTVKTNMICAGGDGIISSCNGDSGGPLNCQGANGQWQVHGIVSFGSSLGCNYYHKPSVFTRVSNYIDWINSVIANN

Serine protease 1 [6] = target: T1, Serine protease 1; assay: Specificity constant on trypsin was determined at 10 percent and at 83 minutes for maximum inhibition and no enzyme activity was recovered over the 2 h-time
[7] = target: T3, Chymotrypsin-like elastase family member 2A (Sus scrofa); assay: Specificity constant on porcine pancreatic elastase was determined at 30 percent and at 99 minutes for maximum inhibition and no enzyme activity was recovered over the 2 h-time
[8] = target: Chymotrypsinogen A (Bos taurus) (UniProt P00766); assay: Specificity constant on alpha-chymotrypsin was determined at 10 percent and at 98 minutes for maximum inhibition and no enzyme activity was recovered over the 2 h-time
[9] = target: Chymotrypsinogen A (Bos taurus) (UniProt P00766); assay: Binding constant on alpha-chymotrypsin was determined at 10 percent and at 98 minutes for maximum inhibition and no enzyme activity was recovered over the 2 h-time
[10] = target: T4, Neutrophil elastase (Homo sapiens) (UniProt P08246); assay: Binding constant on human neutrophil elastase was determined at 30 percent and at 80 minutes for maximum inhibition and no enzyme activity was recovered over the 2 h-time
T4 sequence (whole entry): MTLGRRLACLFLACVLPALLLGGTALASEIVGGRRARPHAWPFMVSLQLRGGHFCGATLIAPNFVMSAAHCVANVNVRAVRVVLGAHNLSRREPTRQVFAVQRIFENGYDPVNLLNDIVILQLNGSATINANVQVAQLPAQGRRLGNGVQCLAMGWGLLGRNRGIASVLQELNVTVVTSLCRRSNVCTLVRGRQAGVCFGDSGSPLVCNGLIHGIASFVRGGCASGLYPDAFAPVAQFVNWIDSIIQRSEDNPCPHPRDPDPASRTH

[11] = target: T4, Neutrophil elastase (Homo sapiens); assay: Specificity constant on human neutrophil elastase was determined at 30 percent and at 80 minutes for maximum inhibition and no enzyme activity was recovered over the 2 h-time
[12] = target: T3, Chymotrypsin-like elastase family member 2A (Sus scrofa); assay: Rate constant of acylation on porcine pancreatic elastase was determined at 30 percent and at 99 minutes for maximum inhibition and no enzyme activity was recovered over the 2 h-time
[13] = target: Chymotrypsinogen A (Bos taurus) (UniProt P00766); assay: Rate constant of acylation on alpha-chymotrypsin was determined at 10 percent and at 98 minutes for maximum inhibition and no enzyme activity was recovered over the 2 h-time
[14] = target: T4, Neutrophil elastase (Homo sapiens); assay: Rate constant of acylation on human neutrophil elastase was determined at 30 percent and at 80 minutes for maximum inhibition and no enzyme activity was recovered over the 2 h-time
Serine protease 1 [15] = target: T1, Serine protease 1; assay: Binding constant on trypsin was determined at 10 percent and at 83 minutes for maximum inhibition and no enzyme activity was recovered over the 2 h-time
Serine protease 1 [16] = target: T1, Serine protease 1; assay: Rate constant of deacylation for trypsin; Fast and could not be measured
[17] = target: T2, Urokinase-type plasminogen activator; assay: Binding constant on Urokinase-type plasminogen activator was determined at 0 percent and at 97 minutes for maximum inhibition and no enzyme activity was recovered over the 2 h-time
[18] = target: T2, Urokinase-type plasminogen activator; assay: Rate constant of acylation on Urokinase-type plasminogen activator […] was determined at 0 percent and at 97 minutes for maximum inhibition and no enzyme activity was recovered over the 2 h-time
Serine protease 1 [19] = target: T1, Serine protease 1; assay: Rate constant of acylation on trypsin was determined at 0 percent and at 97 minutes for maximum inhibition with 45 minutes persistence of inhibition
[20] = target: T2, Urokinase-type plasminogen activator; assay: Specificity constant on Urokinase-type plasminogen activator was determined at 0 percent and at 97 minutes for maximum inhibition and no enzyme activity was recovered over the 2 h-time
Serine protease 1 [21] = target: T1, Serine protease 1; assay: Specificity constant on trypsin was determined at 0 percent and at 97 minutes for maximum inhibition with 45 minutes persistence of inhibition
Serine protease 1 [22] = target: T1, Serine protease 1; assay: Binding constant on trypsin was determined at 0 percent and at 97 minutes for maximum inhibition with 45 minutes persistence of inhibition
[23] = target: T2, Urokinase-type plasminogen activator; assay: Rate constant of deacylation for Urokinase-type plasminogen activator; NM - Fast and could not be measured
[24] = target: T2, Urokinase-type plasminogen activator
[25] = target: T2, Urokinase-type plasminogen activator; remark: listed apart in the source
Description: Specificity constant on Urokinase-type plasminogen activator was determined at 0 percent and at 86 minutes for maximum inhibition and no enzyme activity was recovered over the 2 h-time

[26] = target: Chymotrypsinogen A (Bos taurus) (UniProt P00766)
Serine protease 1 [27] = target: T1, Serine protease 1
Serine protease 1 [28] = target: T1, Serine protease 1; remark: listed apart in the source
[29] = target: Chymotrypsinogen A (Bos taurus) (UniProt P00766); remark: listed apart in the source
[30] = target: Chymotrypsinogen A (Bos taurus) (UniProt P00766); remark: listed apart in the source
Serine protease 1 [31] = target: T1, Serine protease 1; remark: listed apart in the source
Description: Specificity constant on trypsin was determined at 0 percent and at 95 minutes for maximum inhibition and no enzyme activity was recovered over the 2 h-time

Chymotrypsinogen A = Chymotrypsinogen A (Bos taurus, UniProt P00766); assay: Rate constant of deacylation for alpha-chymotrypsin; Fast and could not be measured
[32] = target: T2, Urokinase-type plasminogen activator; remark: listed apart in the source
[33] = target: T4, Neutrophil elastase (Homo sapiens); assay: Rate constant of acylation on human neutrophil elastase was determined at 20 percent and at 95 minutes for maximum inhibition and no enzyme activity was recovered over the 2 h-time
[34] = target: T3, Chymotrypsin-like elastase family member 2A (Sus scrofa); assay: Binding constant on porcine pancreatic elastase was determined at 15 percent and at 35 minutes for maximum inhibition with 0 minutes persistence of inhibition
[35] = target: T3, Chymotrypsin-like elastase family member 2A (Sus scrofa); assay: Specificity constant on porcine pancreatic elastase was determined at 15 percent and at 35 minutes for maximum inhibition with 0 minutes persistence of inhibition
[36] = target: T3, Chymotrypsin-like elastase family member 2A (Sus scrofa); assay: Rate constant of acylation on porcine pancreatic elastase was determined at 15 percent and at 35 minutes for maximum inhibition with 0 minutes persistence of inhibition
[37] = target: T4, Neutrophil elastase (Homo sapiens); assay: Specificity constant on human neutrophil elastase was determined at 20 percent and at 95 minutes for maximum inhibition and no enzyme activity was recovered over the 2 h-time
[38] = target: T4, Neutrophil elastase (Homo sapiens); assay: Binding constant on human neutrophil elastase was determined at 20 percent and at 95 minutes for maximum inhibition and no enzyme activity was recovered over the 2 h-time

T1 sequence (P07477 whole entry): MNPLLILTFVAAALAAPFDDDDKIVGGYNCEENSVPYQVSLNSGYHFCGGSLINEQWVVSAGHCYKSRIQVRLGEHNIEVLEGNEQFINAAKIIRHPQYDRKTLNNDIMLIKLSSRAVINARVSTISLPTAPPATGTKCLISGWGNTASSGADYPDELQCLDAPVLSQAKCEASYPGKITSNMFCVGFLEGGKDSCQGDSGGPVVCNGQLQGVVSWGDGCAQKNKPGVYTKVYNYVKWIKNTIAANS

- Kd (Serine protease 1 [1]): 8.3e-05 s⁻¹
- Ks/i [2]: 0.17 µM
- Kd [3]: 1.3e-05 s⁻¹
Structure (SMILES): N=C(N)Nc1ccc([C@H]2C/C(=C\I)OC(=O)[C@@H]2NC(=O)c2ccccc2)cc1

- ka (Serine protease 1 [4]): 0.45 min⁻¹
- Ks/i [5]: 88 µM
- ka/Ki (Serine protease 1 [6]): 333 M⁻¹ s⁻¹
- ka/Ki [7]: 83.3 M⁻¹ s⁻¹
- ka/Ki [8]: 667 M⁻¹ s⁻¹
- Ks/i [9]: 89 µM
- Ks/i [10]: 6.25 µM
- ka/Ki [11]: 34700 M⁻¹ s⁻¹
- ka [12]: 0.42 min⁻¹
- ka [13]: 3.2 min⁻¹
- ka [14]: 13 min⁻¹
- Ks/i (Serine protease 1 [15]): 24 µM
Structure (SMILES): C=C1CCC(C(C)C)C(=O)O1 (stereo not given)

- Kd (Serine protease 1 [16]): Not measurable
- Ks/i [17]: 0.33 µM
- ka [18]: 391 min⁻¹
- ka (Serine protease 1 [19]): 14.3 min⁻¹
- ka/Ki [20]: 1.98e+07 M⁻¹ s⁻¹
- ka/Ki (Serine protease 1 [21]): 1.03e+06 M⁻¹ s⁻¹
- Ks/i (Serine protease 1 [22]): 0.23 µM
- Kd [23]: Not measurable
Structure (SMILES): C=C1CCC(c2ccc(NC(=N)N)cc2)C(=O)O1 (stereo not given)

- Kd (Serine protease 1 [16]): 2.5e-05 s⁻¹
- Ks/i [24]: 6 µM
- ka/Ki [25]: 13300 M⁻¹ s⁻¹
- ka/Ki [26]: 350000 M⁻¹ s⁻¹
- ka (Serine protease 1 [27]): 10.2 min⁻¹
- Ks/i (Serine protease 1 [28]): 10 µM
- Ks/i [29]: 0.46 µM
- ka [30]: 9.51 min⁻¹
- ka/Ki (Serine protease 1 [31]): 17000 M⁻¹ s⁻¹
- Kd (Chymotrypsinogen A): Not measurable
- ka [32]: 4.83 min⁻¹
Structure (SMILES): C=C1C[C@H](c2ccc(NC(=N)N)cc2)[C@@H](NC(=O)c2ccccc2)C(=C)O1

- ka [33]: 0.81 min⁻¹
- Ks/i [34]: 48.7 µM
- ka/Ki [35]: 333 M⁻¹ s⁻¹
- ka [36]: 1.12 min⁻¹
- ka/Ki [37]: 4500 M⁻¹ s⁻¹
- Ks/i [38]: 3 µM
Structure (SMILES): C/C(Br)=C1/CCC(C(C)C)C(=O)O1 (stereo not given)
